Nine compounds from patent publication US9328138B2 (priority 2011, dated 2016) can be followed below.

Experiment [1] deals with HCV NS3 protease genotype 3a (3A-1) (Hepatitis C virus genotype 3a, UniProt Q81258). As to the kind of experiment: HCV NS3 protease time-resolved fluorescence (TRF) assay, genotype 3a. To be noted: Ki 3a. Type of experiment: biochemical. The method, boiled down:
(§1)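 IC50 values derive from 4-parameter fitting of TRF signal after a 6 h room-temperature cleavage of 25 nM peptide substrate by NS3/NS4A that had been pre-incubated 10 min with compound.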

Experiment [2] concerns the target T1, HCV genotype 1b (BK) NS3 modified enzyme with a R155K mutation (Hepatitis C virus genotype 1b, UniProt P26663, R1181K).
T1 construct: HCV genotype 1b (BK) NS3 modified enzyme
As to the kind of experiment: HCV NS3 protease time-resolved fluorescence (TRF) assay, genotype 1b R155K. Type of experiment: biochemical. To be noted: Ki 1b R155K. Put shortly: as §1

[3] abbreviates: genotype 1b (BK) NS3 R155K, single value.

By Ki is commonly meant the dissociation constant of the complex between target and ligand, obtained from inhibition or displacement. As for `C=C[C@@H]1C[C@]1(NC(=O)[C@@H]1C[C@@H]2CN1C(=O)[C@H](C1CCCC1)NC(=O)O[C@@H]1CCC[C@H]1CC/C=C/Cc1c(nc3ccccc3c1OCCN1CCOC1=O)O2)C(=O)NS(=O)(=O)C1CC1` [Example 42, (3aR,7S,10S,12R,21E,24aS)-7-cyclopentyl-N-{(1R,2S)-1-[(cyclopropylsulfonyl)carbamoyl]-2-ethenylcyclopropyl}-5,8-dioxo-19-[2-(2-oxo-1,3-oxazolidin-3-yl)ethoxy]-1,2,3,3a,5,6,7,8,11,12,20,23,24,24a-tetradecahydro-10H-9,12-methanocyclopenta[18,19][1,10,3,6]dioxadiazacyclononadecino[11,12-b]quinoline-10-carboxamide], the inhibitory constant (Ki) amounted to 1.5 nM in experiment [1] and 0.073 nM in experiment [2] (setting [3]).

As to `C=C[C@@H]1C[C@]1(NC(=O)[C@@H]1C[C@@H]2CN1C(=O)[C@H](C1CCCCC1)NC(=O)O[C@@H]1C[C@H]1CCCCCc1c(nc3ccccc3c1OC1CCN(C)CC1)O2)C(=O)NS(=O)(=O)C1(C)CC1` [Example 211, (1aR,5S,8S,10R,22aR)-5-cyclohexyl-N-[(1R,2S)-2-ethenyl-1-{[(1-methylcyclopropyl)sulfonyl]carbamoyl}cyclopropyl]-17-[(1-methylpiperidin-4-yl)oxy]-3,6-dioxo-1,1a,3,4,5,6,9,10,18,19,20,21,22,22a-tetradecahydro-8H-7,10-methanocyclopropa[18,19][1,10,3,6] dioxadiazacyclononadecino[11,12-b]quinoline-8-carboxamide], the results for the inhibition constant (Ki) in experiment [1] and in experiment [2] (setting [3]) were 0.3 nM and 0.033 nM, respectively.

For the compound `C=C[C@@H]1C[C@]1(NC(=O)[C@@H]1C[C@@H]2CN1C(=O)[C@H](C(C)(C)C)NC(=O)O[C@@H]1C[C@H]1CCCCCc1c(nc3ccccc3c1OCCCCN1CCOCC1)O2)C(=O)NS(=O)(=O)C1(C)CC1` [Example 150, (1aR,5S,8S,10R,22aR)-5-tert-butyl-N-[(1R,2S)-2-ethenyl-1-{[(1-methylcyclopropyl)sulfonyl]carbamoyl}cyclopropyl]-17-[4-(morpholin-4-yl)butoxy]-3,6-dioxo-1,1a,3,4,5,6,9,10,18,19,20,21, 22,22a-tetradecahydro-8H-7,10-methanocyclopropa[18,19][1,10,3,6] dioxadiazacyclononadecino [11,12-b]quinoline-8-carboxamide], the inhibition constant (Ki) in experiment [1] came out at 1.3 nM; in experiment [2] (setting [3]), 0.12 nM.

Turning to `C=C[C@@H]1C[C@]1(NC(=O)[C@@H]1C[C@@H]2CN1C(=O)[C@H](C(C)(C)C)NC(=O)O[C@@H]1CCC[C@H]1CCCCCc1c(nc3ccccc3c1OCCN1CCOCC1)O2)C(=O)NS(=O)(=O)N1CCCC1` [Example 109, (3aR,7S,10S,12R,24aR)-7-tert-butyl-N-{(1R,2S)-2-ethenyl-1-[(pyrrolidin-1-ylsulfonyl)carbamoyl]cyclopropyl}-19-[2-(morpholin-4-yl)ethoxy]-5,8-dioxo-1,2,3,3a,5,6,7,8,11,12,20,21,22,23,24,24a-hexadecahydro-10H-9,12-methano cyclopenta[18,19][1,10,3,6] dioxadiazacyclononadecino [11,12-b]quinoline-10-carboxamide], the Ki in experiment [1] was found to be 122 nM; in experiment [2] (setting [3]), 4.1 nM.

`C=C[C@@H]1C[C@]1(NC(=O)[C@@H]1C[C@@H]2CN1C(=O)[C@H](C1CCCCC1)NC(=O)O[C@@H]1C[C@H]1CCCCCc1c(nc3ccccc3c1OC1CCN(CCS(C)(=O)=O)CC1)O2)C(=O)NS(=O)(=O)C1(C)CC1` [Example 271, (1aR,5S,8S,10R,22aR)-5-cyclohexyl-N-[(1R,2S)-2-ethenyl-1-{[(1-methylcyclopropyl)sulfonyl]carbamoyl}cyclopropyl]-17-({1-[2-(methylsulfonyl)ethyl]piperidin-4-yl}oxy)-3,6-dioxo-1,1a,3,4,5,6,9,10,18,19,20,21,22,22a-tetradecahydro-8H-7,10-methanocyclopropa[18,19][1,10,3,6]dioxadiazacyclononadecino[11,12-b]quinoline-8-carboxamide]: the Ki in experiment [1] was determined as 5.2 nM; in experiment [2] (first of two values printed in the cell (not explained)), 0.023 nM; in experiment [2] (second of two values printed in the cell (not explained)), 0.215 nM.

As to `C=C[C@@H]1C[C@]1(NC(=O)[C@@H]1C[C@@H]2CN1C(=O)[C@H](C(C)(C)C)NC(=O)O[C@@H]1C[C@H]1CCCCCc1c(nc3ccccc3c1OCCCN(C)Cc1ncc(C)[nH]1)O2)C(=O)NS(=O)(=O)C1(C)CC1` [Example 201, (1aR,5S,8S,10R,22aR)-5-tert-butyl-N-[(1R,2S)-2-ethenyl-1-{[(1-methylcyclopropyl)sulfonyl]carbamoyl}cyclopropyl]-17-(3-{methyl[(5-methyl1H-imidazol-2-yl)methyl]amino}proopoxy)-3,6-dioxo-1,1a,3,4,5,6,9,10,18,19,20,21,22,22a-tetradecahydro-8H-7,10-methanocyclopropa[18,19][1,10,3,6] dioxadiazacyclononadecino[11,12-b] quinoline-8-carboxamide], the inhibitory constant (Ki) worked out at 1.3 nM in experiment [1] and 0.079 nM in experiment [2] (setting [3]).

For `C=C[C@@H]1C[C@]1(NC(=O)[C@@H]1C[C@@H]2CN1C(=O)[C@H](C(C)(C)C)NC(=O)O[C@@H]1C[C@H]1CCCCCc1c(nc3c(OC)cccc3c1OCCCn1ccnc1)O2)C(=O)NS(=O)(=O)C1(C)CC1` [Example 144, (1aR,5S,8S,10R,22aR)-5-tert-butyl-N-[(1R,2S)-2-ethenyl-1-{[(1-methylcyclopropyl)sulfonyl]carbamoyl}cyclopropyl]-17-[3-(1H-imidazol-1-yl)propoxy]-13-methoxy-3,6-dioxo-1,1a,3,4,5,6,9,10,18,19,20,21,22,22a-tetradecahydro-8H-7,10-methanocyclopropa[18,19][1,10,3,6]dioxadiazacyclononadecino[11,12-b]quinoline-8-carboxamide], the Ki stood at 6.2 nM in experiment [1] and 0.61 nM in experiment [2] (setting [3]).

On to `C=C[C@@H]1C[C@]1(NC(=O)[C@@H]1C[C@@H]2CN1C(=O)[C@H](C(C)(C)C)NC(=O)O[C@@H]1CCC[C@H]1CC/C=C/Cc1c(nc3ccccc3c1OCCN1CCCCC1)O2)C(=O)NS(=O)(=O)C1CC1` [Example 75, (3aR,7S,10S,12R,21E,24aS)-7-tert-butyl-N-{(1R,2S)-1-[(cyclopropylsulfonyl)carbamoyl]-2-ethenylcyclopropyl}-5,8-dioxo-19-[2-(piperidin-1-yl)ethoxy]-1,2,3,3a,5,6,7,8,11,12,20,23,24,24a-tetradecahydro-10H-9,12-methanocyclopenta[18,19][1,10,3,6]dioxadiazacyclononadecino[11,12-b]quinoline-10-carboxamide], for which the values for the Ki in experiment [1] and in experiment [2] (setting [3]) were 2.3 nM and 0.28 nM, respectively.

With `C=CC1C[C@]1(NC(=O)[C@@H]1C[C@@H]2CN1C(=O)[C@H](C1CCCC1)NC(=O)O[C@@H]1CCC[C@H]1CC/C=C/Cc1c(nc3ccccc3c1OCCN1CCCC1)O2)C(=O)NS(=O)(=O)C1CC1` (stereo partly drawn) [Example 80, (3aR,7S,10S,12R,21E,24aS)-7-cyclo pentyl-N-{(1R,2S)-1-[(cyclopropylsulfonyl)carbamoyl]-2-ethenylcyclopropyl}-5,8-dioxo-19-[2-(pyrrolidin-1-yl)ethoxy]-1,2,3,3a,5,6,7,7,8,11,12,20,23,24,24a-tetradecahydro-10H-9,12-methanocyclopenta[18,19] [1,10,3,6]dioxa diazacyclononadecino[11,12-b] quinoline-10-carboxamide], the Ki in experiment [1] was 2.4 nM; in experiment [2] (setting [3]), 0.2 nM.
